Reference: PubChem BioAssay AID1918957 (Molecular Pharmacology Branch, DTP, NCI, 2023)

Tested on: NCI-H1876 complex spheroid viability
Test: Anticancer human tumor NCI-H1876 cell line growth inhibition [LSD1];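 also: spheroids exposed to compounds for one week before readout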;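 as to viability, T/C: 100% = DMSO vehicle-treated spheroids so lower means fewer viable cells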
Conditions: for IC50: curve of first compound; for viability, T/C: stronger effect = lower value; active = viability on the fitted dose curve at most 10% of control; inactive = the rest
Source text: Multicellular complex tumor spheroid response to LSD1 Inhibitor Iadademstat in combination with a variety of drugs and investigational agents in selected tumor cell lines
The current study was undertaken to assess response to LSD1 inhibitors in combination with standard-of-care drugs and investigational agents in solid tumor complex spheroid models as well as in the K-562 leukemia. Complex spheroids include a stromal component modeled by human endothelial cells (HUVEC) and fibroblasts modeled by human mesenchymal stem cells (MSCs). The concentration ranges selected for each drug and investigational agent were based upon clinically achievable concentrations if the clinical Cmax of the agent was known.
Compounds. The drugs and investigational agents used in this study are listed on Table 1. All of the agents used, including staurosporine (NSC755774) and gemcitabine (NSC613327), were obtained from the Developmental Therapeutics Program, NCI. FDA-approved anticancer drugs are available from the NCI at http://dtp.nci.nih.gov/branches/dscb/oncology_drugset_explanation.html. Drugs and investigational agents were >95% pure by proton nuclear magnetic resonance (NMR) and liquid chromatography/mass spectrometry (LC/MS). Stock solutions were prepared at 400x in DMSO, stored at -70 degrees C, and diluted in fresh medium prior to their use. The final concentration of DMSO in cell culture wells never exceeded 0.25% (v/v). The FDA-approved anticancer drug set is available from the Developmental Therapeutics Program at https://dtp.cancer.gov/organization/dscb/obtaining/available_plates.htm. All drugs and investigational agents were tested over a range starting from a high concentration at or near the clinical Cmax and decreasing in half-log increments. If the clinical Cmax for an agent had not been determined, the highest concentration tested was 10 microM.
Cell Lines. The patient-derived cancer cell (PDC) lines: 292921-168-R-J2-PDC, K24384-001-R-PDC, and 521955-158-R2-J5-PDC pancreatic carcinomas, 556581-035-R-J1 ovarian carcinoma, 324938-238-R-J1-PDC, 855422-203-R-J1-PDC and 883617-216-R-J1-PDC urothelial bladder carcinomas, 743489-274-T-PDC renal cell carcinoma, 138582-R-J1 Merkel cell tumor, K60290-347-R-J1 and K57222-313-R-J1-PDC glioblastomas, 653999-131-R-J2-PDC, LG0703-F948-PDC, and 349418-098-R-PDC non-small cell lung carcinomas, 885512-296-R-J2-PDC, 171881-019-R-J1-PDC breast carcinomas and 186277-243-T-J2-PDC and 233499-124-R-J2-PDC colon carcinomas were obtained from the NCI Patient-Derived Models Repository (PDMR, https://pdmr.cancer.gov). The established cell lines NCI/ADR-RES (RRID:CVCL_14520 and OVCAR-5 (RRID:CVCL_1628) ovarian carcinomas, 786-O (RRID:CVCL_1051) and A498 (RRID:CVCL_A498) renal cell carcinoma, NCI-H211 (ATCC, cat. CRL-5824; RRID:CVCL_1529), NCI-H196 (ATCC, cat. CRL-5823, RRID:CVCL_1509), SW 1271 (ATCC, cat. CRL-2177, RRID:CVCL_1716) and NCI-H1876 (ATCC, cat. CRL-5902, RRID:CVCL_1503) small cell lung carcinomas, MDA-MB-231 (RRID:CVCL_0062) and MDA-MB-468 (RRID:CVCL_0419)breast carcinomas (10-12). Pooled donor human umbilical vein endothelial cells (HUVEC, Lonza, cat. CC-2519) and human mesenchymal stem cells (hMSC, Lonza, cat. PT-2501) were purchased from Lonza (Walkersville, MD).
Cell Culture. All cells were maintained in an incubator at 37 degrees C and 5% CO2 with 95% humidity. The PDC lines were cultured according to standard operating procedures established by the NCI PDMR (https://pdmr.cancer.gov). Briefly all PDCs were thawed and cultured in Matrigel-coated flasks prepared with a working solution of 1X Ham's F-12 nutrient mix, without supplementation (Invitrogen, Waltham, MA, cat. 11765054), 100 U/mL penicillin-streptomycin (Invitrogen, cat. 15140122), and 2.5% Matrigel (Corning Inc., Corning, NY, cat. 354248) for the first three passages. […]

[1] = second compound 0.1 µM, first compound 0.00316 µM
[2] = second compound 0.1 µM, first compound 0.01 µM
[3] = second compound 0.1 µM, first compound 0.0316 µM
[4] = second compound 0.1 µM, first compound 0.1 µM
[5] = second compound 0.316 µM, first compound 0.00316 µM
[6] = second compound 0.316 µM, first compound 0.01 µM
[7] = second compound 0.316 µM, first compound 0.0316 µM
[8] = second compound 0.316 µM, first compound 0.1 µM
[9] = second compound 1 µM, first compound 0.00316 µM
[10] = second compound 1 µM, first compound 0.01 µM
[11] = second compound 1 µM, first compound 0.0316 µM
[12] = second compound 1 µM, first compound 0.1 µM
[13] = second compound 3.16 µM, first compound 0.00316 µM
[14] = second compound 3.16 µM, first compound 0.01 µM
[15] = second compound 3.16 µM, first compound 0.0316 µM
[16] = second compound 3.16 µM, first compound 0.1 µM
[17] = second compound 10 µM, first compound 0.00316 µM
[18] = second compound 10 µM, first compound 0.01 µM
[19] = second compound 10 µM, first compound 0.0316 µM
[20] = second compound 10 µM, first compound 0.1 µM

CC[C@@]1(O)C(=O)OCc2c1cc1n(c2=O)Cc2cc3c(CN(C)C)c(O)ccc3nc2-1 + NC1CC1c1ccc(-c2cccc(O)c2)cc1
inactive: viability, T/C (second compound 0.1 µM, first compound 0.000316 µM) 102% | viability, T/C (second compound 0.1 µM, first compound 0.001 µM) 87.4% | viability, T/C [1] 15.2% | viability, T/C (second compound 0.316 µM, first compound 0.000316 µM) 102% | viability, T/C (second compound 0.316 µM, first compound 0.001 µM) 86.2% | viability, T/C [5] 15.2% | viability, T/C (second compound 1 µM, first compound 0.000316 µM) 104% | viability, T/C (second compound 1 µM, first compound 0.001 µM) 87% | viability, T/C [9] 15.2% | viability, T/C (second compound 3.16 µM, first compound 0.000316 µM) 100% | viability, T/C (second compound 3.16 µM, first compound 0.001 µM) 81.5% | viability, T/C [13] 15.6% | viability, T/C (second compound 10 µM, first compound 0.000316 µM) 97.8% | viability, T/C (second compound 10 µM, first compound 0.001 µM) 76.8% | viability, T/C [17] 17.8% | viability, T/C [18] 15.2%
1.81 nM: IC50 (second compound 1 µM)
1.8 nM: IC50 (second compound 0.316 µM)
1.82 nM: IC50 (second compound 0.1 µM)
1.69 nM: IC50 (second compound 10 µM)
1.73 nM: IC50 (second compound 3.16 µM)
active: viability, T/C [2] 10.4% | viability, T/C [3] 6.25% | viability, T/C [4] 4.62% | viability, T/C [6] 9.15% | viability, T/C [7] 6.84% | viability, T/C [8] 4.48% | viability, T/C [10] 9.89% | viability, T/C [11] 6.39% | viability, T/C [12] 4.42% | viability, T/C [14] 10.3% | viability, T/C [15] 7.55% | viability, T/C [16] 4.94% | viability, T/C [19] 8.77% | viability, T/C [20] 6.56%

COc1cc(C2c3cc4c(cc3C(OC3OC5COC(C)OC5C(O)C3O)C3COC(=O)C23)OCO4)cc(OC)c1O (stereo not given) + NC1CC1c1ccc(-c2cccc(O)c2)cc1
active: viability, T/C (second compound 0.1 µM, first compound 0.949 µM) 8.84% | viability, T/C (second compound 0.1 µM, first compound 3 µM) 10.2% | viability, T/C (second compound 0.316 µM, first compound 0.949 µM) 9.79% | viability, T/C (second compound 0.316 µM, first compound 3 µM) 8.38% | viability, T/C (second compound 1 µM, first compound 0.949 µM) 9.23% | viability, T/C (second compound 1 µM, first compound 3 µM) 8.55% | viability, T/C (second compound 3.16 µM, first compound 0.949 µM) 9% | viability, T/C (second compound 3.16 µM, first compound 3 µM) 8.78%
35.2 nM: IC50 (second compound 1 µM)
40.4 nM: IC50 (second compound 3.16 µM)
35.3 nM: IC50 (second compound 10 µM)
inactive: viability, T/C (second compound 0.1 µM, first compound 0.00949 µM) 87.6% | viability, T/C (second compound 0.1 µM, first compound 0.03 µM) 56.3% | viability, T/C (second compound 0.1 µM, first compound 0.0949 µM) 20.1% | viability, T/C (second compound 0.1 µM, first compound 0.3 µM) 11.4% | viability, T/C (second compound 0.316 µM, first compound 0.00949 µM) 84.4% | viability, T/C (second compound 0.316 µM, first compound 0.03 µM) 54.4% | viability, T/C (second compound 0.316 µM, first compound 0.0949 µM) 18.6% | viability, T/C (second compound 0.316 µM, first compound 0.3 µM) 10.9% | viability, T/C (second compound 1 µM, first compound 0.00949 µM) 92% | viability, T/C (second compound 1 µM, first compound 0.03 µM) 55.2% | viability, T/C (second compound 1 µM, first compound 0.0949 µM) 18% | viability, T/C (second compound 1 µM, first compound 0.3 µM) 11.6% | viability, T/C (second compound 3.16 µM, first compound 0.00949 µM) 93.9% | viability, T/C (second compound 3.16 µM, first compound 0.03 µM) 60.5% | viability, T/C (second compound 3.16 µM, first compound 0.0949 µM) 19.9% | viability, T/C (second compound 3.16 µM, first compound 0.3 µM) 13% | viability, T/C (second compound 10 µM, first compound 0.00949 µM) 85.3% | viability, T/C (second compound 10 µM, first compound 0.03 µM) 54.9% | viability, T/C (second compound 10 µM, first compound 0.0949 µM) 20.7% | viability, T/C (second compound 10 µM, first compound 0.3 µM) 13.8% | viability, T/C (second compound 10 µM, first compound 0.949 µM) 11% | viability, T/C (second compound 10 µM, first compound 3 µM) 9.82%
34.6 nM: IC50 (second compound 0.316 µM)
36.6 nM: IC50 (second compound 0.1 µM)

Nc1ncn(C2CC(O)C(CO)O2)c(=O)n1 (stereo not given) + NC1CC1c1ccc(-c2cccc(O)c2)cc1
> 1000 nM: IC50 (second compound 0.1 µM) | IC50 (second compound 0.316 µM) | IC50 (second compound 1 µM) | IC50 (second compound 3.16 µM) | IC50 (second compound 10 µM)
inactive: viability, T/C [1] 109% | viability, T/C [2] 103% | viability, T/C [3] 105% | viability, T/C [4] 98.6% | viability, T/C (second compound 0.1 µM, first compound 0.316 µM) 91% | viability, T/C (second compound 0.1 µM, first compound 1 µM) 101% | viability, T/C [5] 113% | viability, T/C [6] 110% | viability, T/C [7] 105% | viability, T/C [8] 99% | viability, T/C (second compound 0.316 µM, first compound 0.316 µM) 96% | viability, T/C (second compound 0.316 µM, first compound 1 µM) 94.3% | viability, T/C [9] 106% | viability, T/C [10] 114% | viability, T/C [11] 106% | viability, T/C [12] 102% | viability, T/C (second compound 1 µM, first compound 0.316 µM) 104% | viability, T/C (second compound 1 µM, first compound 1 µM) 101% | viability, T/C [13] 106% | viability, T/C [14] 113% | viability, T/C [15] 107% | viability, T/C [16] 99.1% | viability, T/C (second compound 3.16 µM, first compound 0.316 µM) 94.3% | viability, T/C (second compound 3.16 µM, first compound 1 µM) 89.8% | viability, T/C [17] 109% | viability, T/C [18] 107% | viability, T/C [19] 103% | viability, T/C [20] 108% | viability, T/C (second compound 10 µM, first compound 0.316 µM) 93.4% | viability, T/C (second compound 10 µM, first compound 1 µM) 92.1%
